# According to ChEMBL document CHEMBL1201862, “PubChem BioAssay data set” (2004):
# Calls of active or inactive are those of the source.
# Tests used:
# [1] = biological target: Voltage-gated N-type calcium channel alpha-1B subunit/Amyloid beta A4 precursor protein-binding family A member 1 (Homo sapiens, UniProt Q00975+Q02410); format: protein assay
# Salmon testes DNA = assay: acridine orange-DNA binding displacement – biochemical, fluorescence polarization, cherry-picked samples, set 2, artefact control for KSHV LANA DNA-binding inhibitor project, dose response (AID 504727); parameters: species or system Salmonidae
# ORF 73 = biological target: T1, ORF 73 (Human herpesvirus 8, UniProt O40947); assay: KSHV LANA DNA-binding disruption – biochemical, fluorescence polarization, cherry-picked samples, dose response (AID 504725); parameters: species or system Human gammaherpesvirus 8;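 note: fluorescence polarization of a labeled DNA duplex reporting LANA DNA binding; potency is for inhibitors that block LANA binding to the DNA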
# T1 sequence (O40947 whole entry): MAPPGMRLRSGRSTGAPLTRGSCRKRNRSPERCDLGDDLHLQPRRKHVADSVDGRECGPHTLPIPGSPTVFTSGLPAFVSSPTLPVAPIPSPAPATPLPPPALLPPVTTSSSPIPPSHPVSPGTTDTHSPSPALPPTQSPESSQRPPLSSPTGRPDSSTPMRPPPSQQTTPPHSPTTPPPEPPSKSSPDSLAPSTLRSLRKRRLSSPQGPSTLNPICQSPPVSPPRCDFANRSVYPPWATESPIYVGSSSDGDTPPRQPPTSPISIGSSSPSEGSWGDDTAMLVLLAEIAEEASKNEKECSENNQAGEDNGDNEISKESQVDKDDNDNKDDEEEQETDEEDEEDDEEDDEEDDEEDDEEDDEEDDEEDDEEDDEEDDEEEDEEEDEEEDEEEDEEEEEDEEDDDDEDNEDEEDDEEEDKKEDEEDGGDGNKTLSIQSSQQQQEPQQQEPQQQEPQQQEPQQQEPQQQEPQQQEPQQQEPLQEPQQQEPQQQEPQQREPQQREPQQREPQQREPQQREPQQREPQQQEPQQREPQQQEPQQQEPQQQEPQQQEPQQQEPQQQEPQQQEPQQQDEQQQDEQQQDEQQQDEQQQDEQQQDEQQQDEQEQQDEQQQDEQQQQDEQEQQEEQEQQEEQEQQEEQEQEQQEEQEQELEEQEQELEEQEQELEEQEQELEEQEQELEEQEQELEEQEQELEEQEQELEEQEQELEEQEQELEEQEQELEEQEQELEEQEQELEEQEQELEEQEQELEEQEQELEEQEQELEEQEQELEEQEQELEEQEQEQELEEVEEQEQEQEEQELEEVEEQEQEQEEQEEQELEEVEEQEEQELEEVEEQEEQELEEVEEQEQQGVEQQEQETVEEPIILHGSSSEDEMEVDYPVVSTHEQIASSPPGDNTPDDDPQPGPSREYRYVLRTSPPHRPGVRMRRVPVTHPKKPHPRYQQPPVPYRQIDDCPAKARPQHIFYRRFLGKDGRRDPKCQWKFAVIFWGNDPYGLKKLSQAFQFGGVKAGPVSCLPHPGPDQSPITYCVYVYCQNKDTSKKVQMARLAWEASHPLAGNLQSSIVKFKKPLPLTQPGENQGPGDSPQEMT
# [2] = biological target: Lysine-specific demethylase 4C (Homo sapiens, UniProt Q9H3R0); assay: inhibition of JMJD2C H3K9me3 demethylation – biochemical, DELFIA europium, cherry-picked samples, dose response (AID 488835); format: functional
# Lysine-specific demethylase 4C, sequence (Q9H3R0 whole entry): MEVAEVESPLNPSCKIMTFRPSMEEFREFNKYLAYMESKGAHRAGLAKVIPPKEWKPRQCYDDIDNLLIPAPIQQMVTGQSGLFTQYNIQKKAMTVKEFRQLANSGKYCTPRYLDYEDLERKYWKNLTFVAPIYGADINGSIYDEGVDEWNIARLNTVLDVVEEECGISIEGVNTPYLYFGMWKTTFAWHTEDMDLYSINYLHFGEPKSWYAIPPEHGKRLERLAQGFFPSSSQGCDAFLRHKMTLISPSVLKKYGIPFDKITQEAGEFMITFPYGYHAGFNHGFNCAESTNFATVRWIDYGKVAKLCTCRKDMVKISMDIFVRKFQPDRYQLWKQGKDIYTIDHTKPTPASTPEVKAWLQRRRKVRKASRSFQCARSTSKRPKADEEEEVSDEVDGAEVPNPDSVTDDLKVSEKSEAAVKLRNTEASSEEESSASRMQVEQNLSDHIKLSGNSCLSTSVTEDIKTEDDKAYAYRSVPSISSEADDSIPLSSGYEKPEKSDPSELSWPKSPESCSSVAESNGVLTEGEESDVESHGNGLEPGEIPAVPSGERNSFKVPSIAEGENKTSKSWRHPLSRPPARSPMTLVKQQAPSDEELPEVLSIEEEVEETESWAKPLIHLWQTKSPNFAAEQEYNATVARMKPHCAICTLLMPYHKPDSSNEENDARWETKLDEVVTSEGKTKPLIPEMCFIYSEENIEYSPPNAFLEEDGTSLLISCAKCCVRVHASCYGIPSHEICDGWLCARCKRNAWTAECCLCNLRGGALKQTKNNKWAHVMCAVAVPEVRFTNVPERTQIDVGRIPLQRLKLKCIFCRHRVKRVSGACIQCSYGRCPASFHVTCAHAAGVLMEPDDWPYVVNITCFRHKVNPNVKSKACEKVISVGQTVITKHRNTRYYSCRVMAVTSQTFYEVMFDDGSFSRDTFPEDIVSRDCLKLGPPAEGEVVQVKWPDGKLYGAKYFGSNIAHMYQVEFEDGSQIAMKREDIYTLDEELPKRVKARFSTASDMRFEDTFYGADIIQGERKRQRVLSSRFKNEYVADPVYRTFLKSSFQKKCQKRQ
# [3] = NIH-3T3 fibroblast cytotoxicity, dose response, cytotoxicity control, cell-based, fluorescence, Alamar Blue, secondary assay (AID 2327); format: functional;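 note: NIH-3T3 mouse fibroblasts cultured with fluconazole at 8 µg/mL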
# [4] = biological target: Polyadenylate-binding protein 1 (Homo sapiens, UniProt P11940); assay: MLLE binding blockers, Cy5 peptide tracer – biochemical, fluorescence polarization, Cy5-PAM2 peptide, secondary, miRNA deadenylation inhibitor project, dose response (AID 602260); format: functional; details: read-out: IC50_Mean
# Polyadenylate-binding protein 1, sequence (P11940 whole entry): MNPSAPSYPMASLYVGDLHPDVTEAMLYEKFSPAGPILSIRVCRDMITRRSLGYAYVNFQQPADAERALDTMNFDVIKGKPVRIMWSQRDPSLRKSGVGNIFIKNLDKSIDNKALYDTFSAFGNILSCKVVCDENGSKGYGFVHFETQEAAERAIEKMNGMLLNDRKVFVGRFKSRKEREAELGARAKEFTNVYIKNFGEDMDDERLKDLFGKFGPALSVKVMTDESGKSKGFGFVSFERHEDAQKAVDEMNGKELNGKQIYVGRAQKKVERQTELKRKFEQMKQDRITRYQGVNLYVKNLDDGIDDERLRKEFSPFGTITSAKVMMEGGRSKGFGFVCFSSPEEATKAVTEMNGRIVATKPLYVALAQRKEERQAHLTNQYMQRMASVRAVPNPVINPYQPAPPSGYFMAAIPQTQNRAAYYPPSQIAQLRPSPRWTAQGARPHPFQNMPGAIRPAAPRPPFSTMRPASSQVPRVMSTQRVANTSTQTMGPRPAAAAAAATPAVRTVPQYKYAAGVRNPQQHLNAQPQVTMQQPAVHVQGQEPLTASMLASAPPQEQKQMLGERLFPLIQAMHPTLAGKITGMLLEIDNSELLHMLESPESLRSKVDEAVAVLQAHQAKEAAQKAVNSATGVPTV
# [5] = biological target: Intestinal-type alkaline phosphatase (Homo sapiens, UniProt P09923); assay: inhibition of human intestinal alkaline phosphatase – biochemical, dose response (AID 488876); format: functional
# Intestinal-type alkaline phosphatase, sequence (P09923 whole entry): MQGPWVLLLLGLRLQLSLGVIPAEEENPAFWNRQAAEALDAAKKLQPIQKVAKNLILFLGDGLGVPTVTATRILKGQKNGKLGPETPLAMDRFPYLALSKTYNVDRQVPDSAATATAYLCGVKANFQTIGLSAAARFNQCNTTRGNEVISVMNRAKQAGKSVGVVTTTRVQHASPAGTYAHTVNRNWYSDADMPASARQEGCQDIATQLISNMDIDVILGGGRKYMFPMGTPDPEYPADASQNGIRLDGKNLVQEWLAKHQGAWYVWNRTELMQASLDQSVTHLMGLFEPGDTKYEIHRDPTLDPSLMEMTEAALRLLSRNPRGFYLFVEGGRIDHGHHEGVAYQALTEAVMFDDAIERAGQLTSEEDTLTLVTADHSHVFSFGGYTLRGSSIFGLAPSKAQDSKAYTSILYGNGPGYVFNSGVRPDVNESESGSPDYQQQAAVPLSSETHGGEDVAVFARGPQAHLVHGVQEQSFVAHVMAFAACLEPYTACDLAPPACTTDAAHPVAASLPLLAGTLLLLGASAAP
smiles,measurement,setting,value
O=C(O)c1cc(N2N=C(C(F)(F)F)/C(=C/C=C/c3ccco3)C2=O)ccc1Cl,IC50,[1],11.7 µM (active)
same,AC50,Salmon testes DNA,126 µM (active)
same,AC50,ORF 73,2.28 µM (active)
Cc1cc(C)c(S(=O)(=O)Nc2cc(SCC(=O)O)c(O)c3ccccc23)cc1C,AC50,[2],13 µM (active)
CNCc1ccccc1Sc1ccc(O)c(O)c1,EC50,[3],> 150 µM (inactive)
same,IC50,[4],> 66 µM (inactive)
O=C(/C=C/c1ccco1)NC(=S)Nc1cccc(C(=O)O)c1,IC50,[5],> 100 µM (inactive)
